Source: patent US11014895B2, “Heterocyclic urea compound, and drug composition and application thereof” (CHINA PHARMACEUTICAL UNIVERSITY, priority 2017, dated 2021)

How the values were obtained:
IDO1 enzyme = IDO1 enzyme (Homo sapiens, UniProt P14902); assay: Determination of biochemical activity of IDO1 enzyme (absorbance at 320 nm); details: room temperature, 3 hours
Description: (1) Method for Determining Biochemical Activity of IDO1 Enzyme
Firstly, 15 μl of buffer solution of sodium hydrogen phosphate (PH:7-8), 5 μl of reaction buffer solution containing a proper amount of IDO-1 enzyme and heterocyclic urea compound prepared by the invention were added into wells of a microplate, mixed evenly, and reacted at room temperature for 3 hours; then a light absorption value at 320 nm wavelength was detected by using Envision Multilabel Reader of PE company, an inhibition rate of the heterocyclic urea compound on the enzyme reaction was calculated according to an absorption ratio, and an IC50 value of the heterocyclic urea compound was calculated through analysis by GraphPad.

[1] = biological target: T1, IDO1 enzyme in the Hela cell (Homo sapiens, UniProt P14902); assay: Cell activity: interferon γ-stimulated Hela cells, absorbance of supernatant at 480 nm; assay type: cell-based; details: interferon γ 100 ng/ml, 72 hours
T1 construct: endogenous in cells; host or cells: HeLa cells stimulated with interferon γ (100 ng/ml)
T1 sequence (P14902 whole entry): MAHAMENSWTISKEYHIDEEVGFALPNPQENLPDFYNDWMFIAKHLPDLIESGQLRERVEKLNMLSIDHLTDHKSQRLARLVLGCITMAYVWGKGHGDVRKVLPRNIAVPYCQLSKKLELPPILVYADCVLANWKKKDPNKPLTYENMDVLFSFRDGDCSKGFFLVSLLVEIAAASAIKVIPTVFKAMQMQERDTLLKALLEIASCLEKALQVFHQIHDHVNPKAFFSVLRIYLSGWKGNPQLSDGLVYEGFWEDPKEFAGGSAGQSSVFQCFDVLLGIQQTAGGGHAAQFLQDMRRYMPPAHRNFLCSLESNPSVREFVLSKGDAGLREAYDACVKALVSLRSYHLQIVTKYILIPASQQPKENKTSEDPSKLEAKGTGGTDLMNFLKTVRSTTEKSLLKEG
Description: (2) Method for Determining Cell Activity
Hela cells were cultured and passaged in a DMEM medium supplemented with antibiotics in a 37° C. CO2 incubator, inoculated into a 96-well plate for overnight culture, then 1 μl of heterocyclic urea compound with appropriate concentration was added to each well, and then 100 μl of interferon γ (final concentration was 100 ng/ml) was added. After the cells were continuously cultured for 72 hours, 70 μl of cell culture supernatant was added to a 96-well V-bottom plate, 5 μl of trichloroacetic acid (6.1 N) was added to each well, incubated at 50° C. for 30 min, then taken out and centrifuged at […] for 10 min. The above centrifuged supernatant was transferred to a 384-well microplate (20 μl/well), then 20 μl of 2% didimethylaminobenzaldehyde acetic acid solution was added to each well, shaken and mixed evenly, then photometric absorption was performed at 480 nm, and values were measured.

Chain of IDO1 enzyme (P14902 whole entry): as above

Row | Structure (SMILES) | IC50 (IDO1 enzyme) | IC50 [1]
1 | O=C(Nc1nocc1/C(=N/O)Nc1ccc(F)c(Br)c1)NC1CCCC1 [Embodiment 83, (Z)-1-(4-(N-(3-bromo-4-fluorophenyl)-N′-hydroxyaminoiminomethyl)-isoxazole-3-substituted)-3-(cyclopentyl)urea] | > 1 µM | > 1 µM
2 | O=C(Nc1ccsc1)Nc1nonc1/C(=N/O)Nc1ccc(F)c(Br)c1 [Embodiment 42, (Z)-1-(4-(N-(3-bromo-4-fluorophenyl)-N′-hydroxyaminoiminomethyl)-1,2,5-oxadiazole-3-substituted)-3-(thiophene-3-substituted)urea] | > 1 µM | > 1 µM
3 | O/N=C(\Nc1ccc(F)c(Br)c1)c1conc1NC(=S)NC1CCCCC1 [Embodiment 135, (Z)-1-(4-(N-(3-bromo-4-fluorophenyl)-N′-hydroxyaminoiminomethyl)-isoxazole-3-substituted)-3-(cyclohexyl)thiourea] | 0.1 to 1 µM | 0.1 to 1 µM
4 | N=C(Nc1nonc1/C(=N/O)Nc1ccc(F)c(Br)c1)NC1CC1 [Embodiment 149, (Z)-1-(4-(N-(3-bromo-4-fluorophenyl)-N′-hydroxyaminoiminomethyl)-1,2,5-oxadiazole-3-substituted)-3-(cyclopropyl)guanidine] | > 1 µM | > 1 µM
5 | Cc1ccc(NC(=O)Nc2nonc2/C(=N/O)Nc2ccc(F)c(Br)c2)cc1 [Embodiment 4] | > 1 µM | > 1 µM
6 | O=C(Nc1nonc1/C(=N/O)Nc1ccc(F)c(Br)c1)NC1CCOC1 (stereo not shown) [Embodiment 47, (Z)-1-(4-(N-(3-bromo-4-fluorophenyl)-N′-hydroxyaminoiminomethyl)-1,2,5-oxadiazole-3-substituted)-3-(tetrahydrofuran-substituted)urea] | 0.1 to 1 µM | 0.1 to 1 µM
7 | N=C(Nc1nocc1/C(=N/O)Nc1ccc(F)c(Br)c1)NC1CCCCC1 [Embodiment 159, (Z)-1-(4-(N-(3-bromo-4-fluorophenyl)-N′-hydroxyaminoiminomethyl)-isoxazole-3-substituted)-3-cyclohexylguanidine] | 0.1 to 1 µM | 0.1 to 1 µM
8 | N=C(Nc1ccccc1)Nc1nonc1/C(=N/O)Nc1ccc(F)c(Br)c1 [Embodiment 140, (Z)-1-(4-(N-(3-bromo-4-fluorophenyl)-N′-hydroxyaminoiminomethyl)-1,2,5-oxadiazole-3-substituted)-3-phenylguanidine] | 0.1 to 1 µM | 0.1 to 1 µM
9 | O=C(Nc1nonc1/C(=N/O)Nc1ccc(F)c(Br)c1)Nc1cccc2cc[nH]c12 [Embodiment 36, (Z)-1-(4-(N-(3-bromo-4-fluorophenyl)-N′-hydroxyaminoiminomethyl)-1,2,5-oxadiazole-3-substituted)-3-(1H-indole-7-substituted)urea] | 0.1 to 1 µM | 0.1 to 1 µM
10 | O/N=C(\Nc1ccc(F)c(Br)c1)c1nonc1NC(=S)NC1CCCCC1 [Embodiment 121, (Z)-1-(4-(N-(3-bromo-4-fluorophenyl)-N′-hydroxyaminoiminomethyl)-1,2,5-oxadiazole-3-substituted-)-3-(cyclohexyl)thiourea] | 0.1 to 1 µM | 0.1 to 1 µM
11 | O=C(Nc1ccc(C(F)(F)F)cc1)Nc1nonc1/C(=N/O)Nc1ccc(F)c(Br)c1 [Embodiment 6, (Z)-1-(4-(N-(3-bromo-4-fluorophenyl)-N′-hydroxyaminoiminomethyl)-1,2,5-oxadiazole-3-substituted)-3-(4-trifluorotolyl)urea] | > 1 µM | > 1 µM
12 | O/N=C(\Nc1ccc(F)c(Br)c1)c1nonc1NC(=S)Nc1ccccc1 [Embodiment 116, (Z)-1-(4-(N-(4-bromo-3-fluorophenyl)-N′-hydroxyaminoiminomethyl)-1,2,5-oxadiazole-3-substituted)-3-phenylthiourea] | 0.1 to 1 µM | 0.1 to 1 µM
13 | CCc1cccc(NC(=O)Nc2nonc2/C(=N/O)Nc2ccc(F)c(Br)c2)c1 [Embodiment 2, (Z)-1-(4-(N-(3-bromo-4-fluorophenyl)-N′-hydroxyaminoiminomethyl)-1,2,5-oxadiazole-3-substituted)-3-(3-ethylphenyl)urea] | 0.1 to 1 µM | 0.1 to 1 µM
14 | NC1CCC(NC(=O)Nc2cocc2/C(=N/O)Nc2ccc(F)c(Br)c2)CC1 (stereo not shown) [Embodiment 66, (Z)-1-(4-(N-(3-bromo-4-fluorophenyl)-N′-hydroxyaminoiminomethyl)-furan-3-substituted)-3-(4-aminocyclohexyl)urea] | 0.1 to 1 µM | 0.1 to 1 µM
15 | NCCCNC(=O)Nc1cocc1/C(=N/O)Nc1ccc(F)c(Br)c1 [Embodiment 67, (Z)-1-(4-(N-(3-bromo-4-fluorophenyl)-N′-hydroxyaminoiminomethyl)-furan-3-substituted)-3-(3-aminopropyl)urea] | 0.1 to 1 µM | 0.1 to 1 µM
16 | O=C(Nc1nonc1/C(=N/O)Nc1ccc(F)c(Br)c1)NC1CCCC1 [Embodiment 8, (Z)-1-(4-(N-(3-bromo-4-fluorophenyl)-N′-hydroxyaminoiminomethyl)-1,2,5-oxadiazole-3-substituted)-3-cyclopentylurea] | 0.1 to 1 µM | 0.1 to 1 µM
17 | COc1ccc(NC(=N)Nc2conc2/C(=N/O)Nc2ccc(F)c(Cl)c2)cc1 [Embodiment 154, (Z)-1-(4-(N-(3-chloro-4-fluorophenyl)-N′-hydroxyaminoiminomethyl)-isoxazole-3-substituted)-4-(4-methoxyphenyl)guanidine] | 0.1 to 1 µM | 0.1 to 1 µM
18 | NS(=O)(=O)N1CCN(C(=O)Nc2nonc2/C(=N/O)Nc2ccc(F)cc2)CC1 [Embodiment 56] | < 0.001 µM | < 0.001 µM
19 | O=C(Nc1nocc1/C(=N/O)Nc1ccc(F)c(Br)c1)Nc1c[nH]c2ccccc12 [Embodiment 95, (Z)-1-(4-(N-(3-bromo-4-fluorophenyl)-N′-hydroxyaminoiminomethyl)-isoxazole-3-substituted)-3-(3-aminoindole)urea] | 0.1 to 1 µM | 0.1 to 1 µM
20 | O/N=C(\Nc1ccc(F)c(Br)c1)c1nonc1NC(=S)NC1CCC(O)CC1 (stereo not shown) [Embodiment 123, (Z)-1-(4-(N-(3-bromo-4-fluorophenyl)-N′-hydroxyaminoiminomethyl)-1,2,5-oxadiazole-3-substituted)-3-(4-hydroxycyclohexyl)thiourea] | < 0.001 µM | < 0.001 µM
21 | Nc1ccc(NC(=S)Nc2nonc2/C(=N/O)Nc2ccc(F)c(Br)c2)cc1 [Embodiment 118, (Z)-1-(4-(N-(3-bromo-4-fluorophenyl)-N′-hydroxyaminoiminomethyl)-1,2,5-oxadiazole-3-substituted)-3-(4-aminophenyl)thiourea] | < 0.001 µM | < 0.001 µM
22 | N=C(Nc1nonc1/C(=N/O)Nc1ccc(F)c(Br)c1)NC1CCC(N)CC1 (stereo not shown) [Embodiment 150, (Z)-1-(4-(N-(3-bromo-4-fluorophenyl)-N′-hydroxyaminoiminomethyl)-1,2,5-oxadiazole-3-substituted)-3-(4-aminocyclohexyl)guanidine] | 0.1 to 1 µM | 0.1 to 1 µM
23 | NC1CCC(NC(=O)Nc2nonc2/C(=N/O)Nc2ccc(F)c(Cl)c2)CC1 (stereo not shown) [Embodiment 26] | < 0.001 µM | < 0.001 µM
24 | O=C(Nc1cccnc1)Nc1cocc1/C(=N/O)Nc1ccc(F)c(Br)c1 [Embodiment 75, (Z)-1-(4-(N-(3-bromo-4-fluorophenyl)-N′-hydroxyaminoiminomethyl)-furan-3-substituted)-3-(3-aminopyridine)urea] | 0.1 to 1 µM | 0.1 to 1 µM
25 | COc1ccccc1NC(=O)Nc1nonc1/C(=N/O)Nc1ccc(F)c(Br)c1 [Embodiment 3, (Z)-1-(4-(N-(3-bromo-4-fluorophenyl)-N′-hydroxyaminoiminomethyl)-1,2,5-oxadiazole-3-substituted)-3-(2-methoxyphenyl)urea] | > 1 µM | > 1 µM
26 | CS(=O)(=O)N1CCC(NC(=O)Nc2nonc2/C(=N/O)Nc2ccc(F)c(Br)c2)CC1 [Embodiment 12, (Z)-1-(4-(N-(3-bromo-4-fluorophenyl)-N′-hydroxyaminoiminomethyl)-1,2,5-oxadiazole-3-substituted)-3-(1(methsulfonyl)piperidine-4-substituted)urea] | 0.1 to 1 µM | 0.1 to 1 µM
27 | O=C(Nc1ncc[nH]1)Nc1nonc1/C(=N/O)Nc1ccc(F)c(Br)c1 [Embodiment 46, (Z)-1-(4-(N-(3-bromo-4-fluorophenyl)-N′-hydroxyaminoiminomethyl)-1,2,5-oxadiazole-3-substituted)-3-(1H-imidazole-2-substituted)urea] | > 1 µM | > 1 µM
28 | O=C(Nc1nonc1/C(=N/O)Nc1ccc(F)c(Br)c1)NC1CCCCC1 [Embodiment 7, (Z)-1-(4-(N-(3-bromo-4-fluorophenyl)-N′-hydroxyaminoiminomethyl)-1,2,5-oxadiazole-3-substituted)-3-cyclohexylurea] | 0.1 to 1 µM | 0.1 to 1 µM
29 | O=C(NCCO)Nc1nocc1/C(=N/O)Nc1ccc(F)c(Br)c1 [Embodiment 89, (Z)-1-(4-(N-(3-bromo-4-fluorophenyl)-N′-hydroxyaminoiminomethyl)-isoxazole-3-substituted)+3-(2-hydroxyethyl)urea] | < 0.001 µM | < 0.001 µM
